One data set concerns normal, mobile mice. Nature of the data set: Skeletal muscle size and mitochondrial function in normal, mobile mice. The data set is classed as in vivo, mouse. The text has this: 1. Normal, mobile mice: Normal, mobile mice will be randomly divided into […], A-E, with 8 mice per group. Group A mice will receive an injection of saline vehicle; Group B mice will receive an i.p. injection of the peptide conjugate; Group C mice will receive an i.p. injection of aromatic-cationic peptide; Group D mice will receive an i.p. injection of SPN10; Group E mice will receive an i.p. injection of SPN10+aromatic-cationic peptide.
Preparation of permeabilized muscle fibers. Permeabilized muscle fibers will be prepared as previously described. Korshunov, et al., FEBS Lett 416:15-18, 1997; Tonkonogi, et al., Pfliigers Arch 446:261-269, 2003. Briefly, the muscle will be trimmed of connective tissue and cut down to fiber bundles (4-8 mg wet wt). […]
Mitochondrial respiration in permeabilized fibers. Respiration will be measured polarographically in a respiration chamber maintained at 37° C. […] Flux through complex I will be measured using 5 mM pyruvate and 2 mM malate. […] Basal respiration (state 4) will be determined in the presence of 10 µg/mL oligomycin to inhibit ATP synthesis. The respiratory control ratio (RCR) will be calculated by dividing state 3 by state 4 respiration.

The test system of the next data set is Sprague-Dawley rats. Nature of the data set: Example 38: acute renal injury caused by unilateral ureteral obstruction (UUO). The data set is classed as in vivo, rat. Here is the method: Sprague-Dawley rats will undergo unilateral ureteral ligation with a 4-0 silk suture through a midline abdominal incision under sterile conditions. Ureteral obstruction will be carried out by ligating the lower end of the left ureter, just above the ureterovesical junction. Peptide conjugates (1 mg/kg or 3 mg/kg; n=16); aromatic-cationic peptides (an equivalent molar dose of aromatic-cationic peptide based on the concentration of the aromatic-cationic peptide administered in the peptide conjugate treatment group); SPN10(s) (an equivalent molar dose of SPN10 based on the concentration of SPN10 administered in the peptide conjugate treatment group); SPN10(s) in combination with aromatic-cationic peptides (e.g., an equivalent molar dose of SPN10 based on the concentration of SPN10 administered in the peptide conjugate treatment group and an equivalent molar dose of aromatic-cationic peptide based on the concentration of aromatic-cationic peptide administered in the peptide conjugate treatment group); or control vehicle (n=16) will be administered intraperitoneally, one day prior to UUO and continuing for 14 days following UUO.
Renal Histology: Trichrome sections of paraffin embedded specimens will be examined by a board-certified pathologist (SVS, renal pathology specialist), and fibrosis scored on a scale of 0—+++.
Immunohistochemical Analysis: Immunohistochemical staining for macrophages will be carried out using a monoclonal antibody to ED-1 as previously described. Macrophages will be counted in 10 high-power fields (×400) by two independent investigators in a blinded fashion. Apoptosis will be measured by TUNEL assay as described in Example 37. The presence of fibroblasts will be examined using immunohistochemistry, as described above, using the DAKO #S100-A4 antibody (1:100 dilution). Antigen will be retrieved by incubating cells with Proteinase K for 20 minutes. The remaining immunoperoxidase protocol will be carried out according to routine procedures.
It is expected that S100-A4 staining will be present in spindle-shaped interstitial cells and round, inflammatory cells. Only spindle-shaped cells will be quantified. Staining for 8-OH dG will be done using Proteinase K for antigen retrieval and an antibody provided by the Japan Institute Control of Aging at a dilution of 1:200-1:500.
Polymerase Chain Reaction Analysis: Renal expression of heme oxygenase-1 (HO-1) will be measured by RT-PCR according to the following: Rat kidneys will be harvested and stored at −80° C. until use. Total RNA will be extracted using the Trizol (R)-Chloroform extraction procedure, and mRNA will be purified using the Oligotex mRNA extraction kit (Qiagen, Valencia, California, U.S.A.) according to manufacturer instructions. mRNA concentration and purity will be determined by measuring absorbance at 260 nm. RT-PCR will be performed using Qiagen One-step PCR kit (Qiagen, Valencia, California, U.S.A.) and an automated thermal cycler (ThermoHybrid, PX2). Thermal cycling will be carried out as follows: initial activation step for 15 minutes at 95° C. followed by 35 cycles of denaturation for 45 seconds at 94° C., annealing for 30 seconds at 60° C., extension for 60 seconds at 72° C. Amplification products will be separated on a 2% agarose gel electrophoresis, visualized by ethidium bromide staining, and quantified using Image J densitometric analysis software. GAPDH will be used as an internal control.

Residues, ends and D or L forms follow the SMILES beside them.

Take `N=C(N)NCCC[C@H](NC(=O)[C@@H](N)Cc1c[nH]c2ccccc12)C(=O)N[C@@H](Cc1c[nH]c2ccccc12)C(=O)N[C@@H](CCCCN)C(N)=O` [SPN10, H-L-Trp-L-Arg-L-Trp-L-Lys-NH2] (H-WRWK-NH2): the “normal soleus muscle weight, RCR, mitochondrial state 3 and state 4 respiration” value with normal, mobile mice (mobile mice) is given as “no effect”. Moreover, the “normal skeletal muscle size or mitochondrial function” value in the data set on normal, mobile mice (mouse, in vivo) is on record as “no effect”. Further, in the data set on Sprague-Dawley rats (1 mg/kg), the “tubular cell proliferation at the 1 mg/kg dose” value is listed as “decreased”. Further, the “fibroblast infiltration in obstructed kidneys (FSP-1)” value in the data set with Sprague-Dawley rats (1 mg/kg (conjugate) or equivalent molar dose) was “significantly decrease the amount of fibroblast infiltration”. For the same molecule, in the data set with Sprague-Dawley rats (1 mg/kg (conjugate) or equivalent molar dose, 2 weeks of UUO), the “tubular apoptosis in obstructed kidneys” value was “significantly decrease tubular apoptosis”. Moreover, the “macrophage infiltration in obstructed kidneys” value with Sprague-Dawley rats (1 mg/kg or 3 mg/kg (conjugate) or equivalent molar dose) is “significantly decrease macrophage infiltration”. In the data set with Sprague-Dawley rats (3 mg/kg), the “tubular cell proliferation at the 3 mg/kg dose” value is given as “further decreased”. Moreover, in the data set on Sprague-Dawley rats (14 days UUO), the “trichrome staining (fibrosis score), cortex of obstructed kidney” value is recorded as 0-trace and the “trichrome staining (fibrosis score), medulla of obstructed kidney” value is “tr—1+”. Besides, the “HO-1 expression in the obstructed kidney” value in the data set with Sprague-Dawley rats (RT-PCR) is recorded as “decrease HO-1 expression”. Further, in the data set with Sprague-Dawley rats (rat, in vivo), the medullary fibrosis result is “decrease medullary fibrosis”, the “number of 8-OH dG positive cells” value was “significantly reduced” and the “renal tubular proliferation in obstructed kidneys (PCNA)” value is on record as “significant decrease in renal tubular proliferation”.

Source of the values: US20240108740A1, “THERAPEUTIC COMPOSITIONS INCLUDING SPN10 AND USES THEREOF” (Stealth BioTherapeutics Inc., priority 2022, published 2024).
